Measurements published in US7304166B2, “Benzenesulfonate salt of 4-fluoro-2-cyanopyrrolidine derivatives” (Taisho Pharmaceutical Co., Ltd., priority 2002, dated 2007).

Legend:
Type in all cases: physicochemical
[1] = Testing for weight change under humidified conditions; details: room temperature; for Change in weight / State: desiccator containing water
Experimental: Each analyte (10.0 mg) was metered into a microtube (diameter: 8 mm, length: 50 mm) and allowed to stand in a desiccator containing water in such a manner as to keep the tube from coming into contact with water. The desiccator was allowed to stand at room temperature. The analytes were monitored for their state and measured for their weight with time. Changes in weight were expressed as percentages (%).

[2] = Solid-state stability testing (remaining percentage by HPLC)
Experimental: Each analyte (about 1 mg) was precisely metered and stored in a screw-capped test tube covered with aluminum foil for light shielding, which was sealed under heated conditions (70° C.) or opened under heated and humidified conditions (40° C., 75% RH). The remaining percentage of each drug was measured in the following manner. After completion of a given period of storage, the test tubes were supplemented with 10 ml HPLC mobile phase to dissolve the analytes and then provided for quantification by HPLC. The results were compared in area with the initial values obtained before heating or before heating and humidification to calculate the remaining percentage of drugs.
Column temperature: 40° C.
Detection: UV absorptiometer (Detection wavelength: 210 nm)
Mobile phase: water/acetonitrile/phosphoric acid/SDS (700:300:1:2)

[3] = Compatibility testing with additives (remaining percentage by HPLC); details: 65° C. for 1 week, sealed, methanesulfonate salt
Experimental: This testing was performed according to the report of Serajuddin A. T. M. et al. (J. Pharm. Sci., 88, 696-704, 1999). A drug substance and additives were metered into a screw-capped test tube according to Recipe A (10 mg drug substance, 68 mg crystalline cellulose, 2 mg magnesium stearate) or Recipe B (10 mg drug substance, 68 mg lactose, 2 mg hydrogenated oil) and mixed in a rotary mixer (MIX-ROTAR VMR-5, Iuchi Seieido Co., Ltd., Japan) for 1 hour. The mixture according to Recipe A or B was further stirred using a vortex mixer (TOUCH MIXER MT-31, Yamato Scientific Co., Ltd., Japan), provided that Recipe A was supplemented with no additional ingredient, while Recipe B was supplemented with 16 μl purified water. The mixtures were stored at 65° C. for 1 week under sealed and completely light-shielded conditions and then measured for drug content after storage to calculate the remaining percentage of each drug in each recipe.
The drug content was determined in the following manner. […] The resulting solutions were each filtered through a 0.45 μm membrane filter, 5 ml of which was sampled and filled up with 50% methanol in a 10 ml measuring flask for use as a sample solution and then quantified by HPLC. […]

[4] = humidified conditions, over the test period
[5] = 40° C., 75% RH for 1 month, opened, light-shielded
[6] = 70° C. for 3 days, sealed, light-shielded

| Change in weight ([1]; Day 1) | State ([1]; Day 1) | State under humidified conditions [1, 4] | Remaining percentage of drug [2, 5] | Remaining percentage of drug [2, 6] | Change in weight ([1]; Day 2) | State ([1]; Day 2) | Remaining percentage of drug ([3]; Recipe A (crystalline cellulose, magnesium stearate)) | Remaining percentage of drug ([3]; Recipe B (lactose, hydrogenated oil, purified water)) | State ([1]; Day 3) | Change in weight under humidified conditions [1, 4] | Remaining percentage of drug ([2]; under either condition (70° C. 3 days; 40° C., 75% RH 1 month)) | Compound |
| --- | --- | --- | --- | --- | --- | --- | --- | --- | --- | --- | --- | --- |
| +44% | Deliquescence | deliquesced | 92.6% | 97.0% |  |  |  |  |  |  |  | CC(C)(CO)NCC(=O)N1C[C@@H](F)C[C@H]1C#N.Cl [Reference Example 1, (2S,4S)-2-cyano-4-fluoro-1-[(2-hydroxy-1,1-dimethyl)ethylamino]acetylpyrrolidine hydrochloride salt] |
| +28% |  | deliquesced | 95.9% | 95.5% | +71% | Deliquescence | 91.6% | 74.5% |  |  |  | CC(C)(CO)NCC(=O)N1C[C@@H](F)C[C@H]1C#N.CS(=O)(=O)O [Reference Example 2, (2S,4S)-2-cyano-4-fluoro-1-[(2-hydroxy-1,1-dimethyl)ethylamino]acetylpyrrolidine methanesulfonate salt] |
|  |  | no deliquescence | 99.6% | 99.3% |  |  |  |  | No change | no change in weight | ≥ 99% | CC(C)(CO)NCC(=O)N1C[C@@H](F)C[C@H]1C#N.O=S(=O)(O)c1ccccc1 [Example 1, (2S,4S)-2-cyano-4-fluoro-1-[(2-hydroxy-1,1-dimethyl)ethylamino]acetylpyrrolidine benzenesulfonate salt] |
